Experimental data reported in patent US11921020B2, “Method of purifying tumor cells using shear stress” (UNIVERSITY OF IOWA RESEARCH FOUNDATION, priority 2011, dated 2024).

Legend:
MDA.MB.231 cells = experiment: Fluid shear stress protocol (repeated passage through 30 gauge needle), cell viability; format: cell-based, human
Method: (§1) 5 mL of a 5×10^5 cell/mL suspension was placed into 10 mL glass beaker (Pyrex) and loaded into a 5 mL syringe (BD Biosciences #309603) by slowly drawing the cells into the syringe manually. A 30 gauge needle (BD Biosciences #305106) was then attached to the syringe and cells were pushed through at a constant flow rate by one of two methods:
250 μL/sec flow rate: This is the most commonly used flow rate throughout this example. To facilitate throughput, some experiments at 250 μL/sec were done manually. Here, cell suspensions were prepared as above with one exception: the small bore extension was not used, rather the needle was directly secured to the syringe. Suspensions were pushed through the needle by hand and collected into a 10 mL glass beaker. To control the flow rate using this approach, a timer was zeroed before each needle passage and the time taken to push a given volume through the needle was measured. At each passage, the volume in milliliters was divided by the time in seconds to give flow rate in mL/sec. Data for figures was only obtained from shear stress assays in which the average flow rate over 10 passages was ±10 μL/sec of the targeted 250 μL/sec. […] Further, to assure reproducibility, most assays were repeated ten times or more. […]

PC-3 cells = experiment: as above; format: cell-based, human; conditions: for shear stress resistance of cells in PBS supplemented with the cation: 88 mM final concentration, n=1
Method: as §1
Syringe Pump: A Harvard Apparatus PHD-2000 Infuse/Withdraw syringe pump was calibrated for the syringes being used and set to the appropriate flow rate (see Table I). After securing the syringe to the pump housing, a 6-inch small bore extension set (Smiths Medical MX448L) was used to connect the syringe and needle. The 10 mL beaker was secured at a 45-degree angle and the needle rested gently (without damaging the bevel) at the bottom of the beaker. The pump is then turned on and the cell suspension was collected into the beaker. The bore extension, still connected to the needle, was then removed from the syringe, and the syringe was removed from the pump. The cell suspension was re-loaded into the syringe as described above. In a standard assay, this process was repeated until cells have been passaged a total of ten times (control experiments were taken out to 15 passages). After each passage, 100 μL aliquots of cell suspension were removed from the glass beaker in duplicate for viability assays (described below). For non-shear stress treated control, cells which have been in suspension for the entire duration of the assay were aliquoted and treated as 100% viability controls.
250 μL/sec flow rate: This is the most commonly used flow rate throughout this example. To facilitate throughput, some experiments at 250 μL/sec were done manually. Here, cell suspensions were prepared as above with one exception: the small bore extension was not used, rather the needle was directly secured to the syringe. Suspensions were pushed through the needle by hand and collected into a 10 mL glass beaker. To control the flow rate using this approach, a timer was zeroed before each needle passage and the time taken to push a given volume through the needle was measured. At each passage, the volume in milliliters was divided by the time in seconds to give flow rate in mL/sec. Data for figures was only obtained from shear stress assays in which the average flow rate over 10 passages was ±10 μL/sec of the targeted 250 μL/sec. […] Further, to assure reproducibility, most assays were repeated ten times or more.
Bioluminescence Imaging (BLI): 100 μL aliquots of shear stress-treated cells or control cells (those sitting in suspension through the duration of shear treatment) were loaded into a black 96 well plate (Costar) in duplicate. Each well was then diluted to 200 μL at final concentration of 150 μg/mL D-luciferin (Promega) using a multichannel pipette. Plates were incubated for 5 minutes at room temperature and then imaged for 5 minutes in an IVIS-100 (Xenogen). Bioluminescence measurements were collected using Living Image 2.50.1 software (Igor Pro). The photon flux of shear treated cells was divided by that of control cells to give % viability. All figures with BLI-derived viability data represent the average of at least 3 experiments.
Next, whether rearrangements of the cytoskeleton occur in response to shear stress and thereby imparts a protective advantage to cells was investigated. […]

[1] = 20 nM for one hour before shear stress protocol
[2] = brief treatment prior to shear stress protocol

| Compound | cell death in treated cells versus DMSO treated controls after shear stress protocol (MDA.MB.231 cells; [1]) | cell viability during pretreatment, before shear stress (MDA.MB.231 cells; [2]) | cell death in treated cells versus DMSO treated controls after shear stress protocol (PC-3 cells; [1]) | cell viability during pretreatment, before shear stress (PC-3 cells; [2]) | shear stress resistance of cells in PBS supplemented with the cation (PC-3 cells; 250 μL/sec) | survival curve under shear stress of cells in PBS supplemented with the cation (PC-3 cells; 250 μL/sec, calcium at same concentration as complete medium (129.4 μg/mL)) |
| --- | --- | --- | --- | --- | --- | --- |
| C=C1[C@@H](C)[C@H]2[C@H](Cc3ccccc3)NC(=O)[C@]23[C@H](OC(C)=O)/C=C/[C@@](C)(O)C(=O)[C@@H](C)C/C=C/[C@H]3[C@@H]1O [cytochalasin-D] | over 3 fold | not affected | over 3 fold | not affected |  |  |
| [Ba] [barium] |  |  |  |  | equally susceptible to shear stress as cells in nominally calcium-free PBS |  |
| [Ca+2] [calcium] |  |  |  |  | rescues the shear stress resistance phenotype | not significantly different from the media control suspensions |
